Assay results published in PubChem BioAssay (NCI).
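In this assay, cells in 96-well plates receive the compound at five concentrations for 48 hours. Endpoints are linearly interpolated between the surrounding concentrations. TGI: total growth inhibition.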

Key:
Assay in all cases: NCI tumour cell line growth inhibition, 48 h
A498 renal = tested on: A498 renal
BT-549 breast = tested on: BT-549 breast
EKVX NSCLC = tested on: EKVX NSCLC
HCC-2998 colon = tested on: HCC-2998 colon
HCT-15 colon = tested on: HCT-15 colon
HOP-92 NSCLC = tested on: HOP-92 NSCLC
M14 melanoma = tested on: M14 melanoma
MALME-3M melanoma = tested on: MALME-3M melanoma
MCF7 breast = tested on: MCF7 breast
MOLT-4 leukemia = tested on: MOLT-4 leukemia
NCI-H226 lung = tested on: NCI-H226 lung
NCI-H460 lung = tested on: NCI-H460 lung
NCI/ADR-RES ovarian = tested on: NCI/ADR-RES ovarian
OVCAR-8 ovarian = tested on: OVCAR-8 ovarian
SF-268 CNS = tested on: SF-268 CNS
SF-295 CNS = tested on: SF-295 CNS
SNB-19 CNS = tested on: SNB-19 CNS
SR leukemia = tested on: SR leukemia
U251 CNS = tested on: U251 CNS

SMILES	TGI (A498 renal)	TGI (BT-549 breast)	TGI (EKVX NSCLC)	TGI (HCC-2998 colon)	TGI (HCT-15 colon)	TGI (HOP-92 NSCLC)	TGI (M14 melanoma)	TGI (MALME-3M melanoma)	TGI (MCF7 breast)	TGI (MOLT-4 leukemia)	TGI (NCI-H226 lung)	TGI (NCI-H460 lung)	TGI (NCI/ADR-RES ovarian)	TGI (OVCAR-8 ovarian)	TGI (SF-268 CNS)	TGI (SF-295 CNS)	TGI (SNB-19 CNS)	TGI (SR leukemia)	TGI (U251 CNS)
Clc1ccc(C2=C(c3ccccc3)C(c3ccc(Cl)cc3)N3C(=N[C@H]4CCCC[C@@H]43)N2)cc1 (stereo partly drawn)	31.1 µM	28.6 µM	24.8 µM	10.4 µM	18.8 µM	21.4 µM	24.8 µM	34.8 µM	21.2 µM	22.7 µM	47.9 µM	11.1 µM	28.1 µM	29.5 µM	44.8 µM	23.8 µM	27.6 µM	5.56 µM	23.3 µM
COc1c(O)c(O)c2c(c1O)C(=O)c1cc(C)cc(O)c1C2=O	> 100 µM	> 100 µM	> 100 µM	> 100 µM	> 100 µM	> 100 µM	> 100 µM	83.5 µM	> 100 µM	> 100 µM	> 93.5 µM	> 78 µM	47.3 µM	> 83.3 µM	> 100 µM	> 69.7 µM	> 100 µM	> 100 µM	> 100 µM
CCOC(=O)c1[nH]cc(C)c1-c1c[nH]c2ccccc12	> 100 µM	93.8 µM	> 100 µM	> 100 µM	> 100 µM	> 74.4 µM	> 100 µM	> 100 µM	> 60.8 µM	27.9 µM	67.6 µM	> 87.5 µM	72.5 µM	> 100 µM	> 100 µM	> 93 µM	> 100 µM	> 39.4 µM	> 100 µM
Cn1c(=O)n2c(-c3ccccc3)c(-c3ccccc3)n2c1=O	> 100 µM	> 100 µM	> 100 µM	> 100 µM	> 100 µM	> 100 µM	> 100 µM	> 100 µM	> 100 µM	> 100 µM	> 100 µM	> 100 µM	> 100 µM	> 100 µM	–	> 100 µM	> 100 µM	> 100 µM	> 100 µM
CN=C(N)/N=C(\N)Nc1cc2ccccc2c2ccccc12	23.3 µM	29.3 µM	31.8 µM	6.78 µM	33.4 µM	40.8 µM	33.4 µM	29.3 µM	26.1 µM	34 µM	37.4 µM	24.4 µM	49.9 µM	33.8 µM	27.5 µM	32.5 µM	30.9 µM	47.8 µM	28.5 µM
O=C1N=NC(=O)N1c1cc(C(F)(F)F)cc(C(F)(F)F)c1	25.4 µM	12.9 µM	33.2 µM	14.7 µM	12 µM	8.25 µM	24.3 µM	14.2 µM	> 32.4 µM	40.3 µM	12.4 µM	13.4 µM	11.5 µM	13.7 µM	17.3 µM	9.49 µM	> 40.8 µM	> 53.1 µM	12.4 µM
C=C(C)[C@H]1C[C@@H]2O[C@@](O)(/C(C)=C\C(=O)/C=C(/C)C[C@H]3OC(=O)[C@@]24O[C@H]34)[C@@H]1O	> 100 µM	> 100 µM	> 100 µM	> 100 µM	> 100 µM	> 100 µM	> 100 µM	> 100 µM	> 100 µM	> 100 µM	> 100 µM	> 100 µM	> 100 µM	> 100 µM	> 100 µM	> 100 µM	> 100 µM	> 100 µM	> 100 µM
C=C(C)[C@@H]1CCC2=C[C@H](OC2=O)[C@@]2(C)C[C@@H]2C(=O)/C=C(/C)C(=O)[C@H]1OC(C)=O	57.8 µM	27.4 µM	> 49.8 µM	43 µM	> 55.7 µM	> 93.3 µM	> 100 µM	29.8 µM	> 37.6 µM	> 39.4 µM	58.3 µM	> 82.3 µM	> 100 µM	> 68.6 µM	> 72.6 µM	> 100 µM	> 73.7 µM	> 37.8 µM	> 68 µM
COC(=O)C1(Cc2cccc(C)c2)Cc2c(C)cccc2C1=O (stereo not drawn)	> 100 µM	> 100 µM	> 100 µM	> 100 µM	> 100 µM	> 100 µM	> 100 µM	> 100 µM	90.8 µM	> 100 µM	> 100 µM	> 100 µM	72.2 µM	> 100 µM	> 100 µM	> 100 µM	> 100 µM	> 100 µM	> 100 µM
Cn1c(=O)cc(N=Nc2ccc(Cl)c(Cl)c2)[nH]c1=O	> 100 µM	96.2 µM	51.4 µM	> 100 µM	38.9 µM	80.4 µM	47.7 µM	32.6 µM	59.8 µM	61 µM	> 100 µM	> 100 µM	77.4 µM	53 µM	51.1 µM	> 100 µM	> 100 µM	54 µM	56.3 µM
CC1=NN(C(=O)CC(=O)Nc2cccc(C)c2)C(=O)C1N=Nc1ccc(S(=O)(=O)c2ccc(N=NC3C(=O)N(C(=O)CC(=O)Nc4cccc(C)c4)N=C3C)cc2)cc1 (stereo not drawn)	> 100 µM	> 100 µM	> 100 µM	> 100 µM	> 100 µM	> 100 µM	> 100 µM	> 100 µM	> 100 µM	> 100 µM	> 100 µM	> 100 µM	> 100 µM	> 100 µM	> 100 µM	> 100 µM	> 100 µM	> 100 µM	> 100 µM
